Measured values as given in paper PMC2834277 (Nature structural & molecular biology, 2010).

Columns and labels:
DmAgo2ΔQ [1] = biological target: T1, DmAgo2ΔQ (Drosophila melanogaster, UniProt Q9VUQ5); assay: filter binding, competition with […]-bantam miRNA; settings: PBS, 5 mM MgCl2, room temperature; 5'-end miRNA site; high concentrations
T1 sequence (Q9VUQ5 400-1214 limits assumed): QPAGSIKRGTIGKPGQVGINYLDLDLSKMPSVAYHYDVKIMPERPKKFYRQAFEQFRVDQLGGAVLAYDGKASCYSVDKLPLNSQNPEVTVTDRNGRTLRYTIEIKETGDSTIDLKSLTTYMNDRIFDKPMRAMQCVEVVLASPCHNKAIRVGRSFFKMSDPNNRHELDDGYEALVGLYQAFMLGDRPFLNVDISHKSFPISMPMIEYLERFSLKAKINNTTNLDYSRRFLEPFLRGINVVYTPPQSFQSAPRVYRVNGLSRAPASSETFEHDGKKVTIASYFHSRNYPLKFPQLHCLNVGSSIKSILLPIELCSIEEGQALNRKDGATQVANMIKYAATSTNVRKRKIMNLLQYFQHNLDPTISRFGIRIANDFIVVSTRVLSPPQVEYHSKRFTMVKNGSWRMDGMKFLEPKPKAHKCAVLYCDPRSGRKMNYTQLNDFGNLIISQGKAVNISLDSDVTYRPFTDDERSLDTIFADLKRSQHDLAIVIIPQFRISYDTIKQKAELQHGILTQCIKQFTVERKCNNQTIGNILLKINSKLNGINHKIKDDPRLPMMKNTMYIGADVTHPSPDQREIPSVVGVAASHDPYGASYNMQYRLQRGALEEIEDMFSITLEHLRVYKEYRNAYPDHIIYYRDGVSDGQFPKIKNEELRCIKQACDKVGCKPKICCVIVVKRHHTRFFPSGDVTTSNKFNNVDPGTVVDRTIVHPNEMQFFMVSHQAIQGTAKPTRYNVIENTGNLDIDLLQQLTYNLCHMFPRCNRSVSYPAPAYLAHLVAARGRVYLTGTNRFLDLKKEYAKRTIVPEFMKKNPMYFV

PurR-C [2] = biological target: T2, PurR-C (Escherichia coli, UniProt P0ACP7); assay: Sepharose resin pull-down, competition with free nucleotide; format: binding; settings: 500 uM nucleotide, PBS, 5 mM MgCl2, 4 C; data not shown
T2 sequence (P0ACP7 60-341 limits assumed): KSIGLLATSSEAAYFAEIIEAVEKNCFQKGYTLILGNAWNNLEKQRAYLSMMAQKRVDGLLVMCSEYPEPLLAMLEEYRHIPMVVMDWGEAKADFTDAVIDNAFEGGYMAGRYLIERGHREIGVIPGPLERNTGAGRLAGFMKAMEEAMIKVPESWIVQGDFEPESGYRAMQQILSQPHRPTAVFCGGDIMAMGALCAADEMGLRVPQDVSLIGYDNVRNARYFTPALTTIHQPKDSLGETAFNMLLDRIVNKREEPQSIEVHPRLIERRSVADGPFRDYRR

DmAgo2-MID [3] = biological target: T3, DmAgo2-MID (Drosophila melanogaster, UniProt Q9VUQ5); assay: m7GTP-Sepharose pull-down, competition with free nucleotide; format: binding; settings: 500 uM GTP, PBS, 5 mM MgCl2, 4 C; competitive
T3 sequence (Q9VUQ5 740-884 limits assumed): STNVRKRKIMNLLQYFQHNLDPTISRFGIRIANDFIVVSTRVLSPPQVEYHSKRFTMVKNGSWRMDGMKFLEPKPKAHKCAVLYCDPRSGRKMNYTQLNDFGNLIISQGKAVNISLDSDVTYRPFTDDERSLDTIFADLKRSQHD

DmAgo2ΔQ [4] = biological target: T1, DmAgo2ΔQ; assay: resin pull-down, GTP-Sepharose; format: binding; settings: ligand immobilised on Sepharose; competed by miRNA; PBS, MgCl2, 4 C
CeRde1 MID domain = biological target: T4, CeRde1 MID domain (Caenorhabditis elegans, UniProt G5EEH0); assay: resin pull-down, m7GTP-Sepharose; format: binding; settings: ligand immobilised on Sepharose; PBS, 5 mM MgCl2, 4 C
T4 sequence (G5EEH0 470-618 limits assumed): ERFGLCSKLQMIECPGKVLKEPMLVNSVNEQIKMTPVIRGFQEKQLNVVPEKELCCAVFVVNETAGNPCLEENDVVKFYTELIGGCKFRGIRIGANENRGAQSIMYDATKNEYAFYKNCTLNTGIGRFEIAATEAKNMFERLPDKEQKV

PurR-C [5] = biological target: T2, PurR-C; assay: resin pull-down, m7GTP-Sepharose; format: binding; settings: ligand immobilised on Sepharose; PBS, 5 mM MgCl2, 4 C
CeAlg1-MID = CeAlg1-MID (Caenorhabditis elegans, UniProt G5EGR6); assay: resin pull-down, m7GTP-Sepharose; format: binding; settings: ligand immobilised on Sepharose; PBS, 5 mM MgCl2, 4 C
DmeIF4E = biological target: T5, DmeIF4E (Drosophila melanogaster, UniProt P48598); assay: resin pull-down, m7GTP-Sepharose; format: binding; settings: ligand immobilised on Sepharose; PBS, 5 mM MgCl2, 4 C
T5 sequence (P48598 1-259): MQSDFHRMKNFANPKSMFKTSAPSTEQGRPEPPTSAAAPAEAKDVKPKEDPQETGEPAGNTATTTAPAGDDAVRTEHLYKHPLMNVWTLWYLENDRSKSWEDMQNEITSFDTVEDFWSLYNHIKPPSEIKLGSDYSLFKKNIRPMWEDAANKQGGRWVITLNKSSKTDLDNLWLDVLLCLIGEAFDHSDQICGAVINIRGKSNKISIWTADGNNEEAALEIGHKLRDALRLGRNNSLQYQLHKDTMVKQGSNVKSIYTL

DmAgo2-MID [6] = biological target: T3, DmAgo2-MID; assay: resin pull-down, m7GTP-Sepharose; format: binding; settings: ligand immobilised on Sepharose; PBS, 5 mM MgCl2, 4 C
DmAgo1-MID = DmAgo1-MID (Drosophila melanogaster, UniProt A1Z9J5); assay: resin pull-down, m7GTP-Sepharose; format: binding; settings: ligand immobilised on Sepharose; PBS, 5 mM MgCl2, 4 C
DmAgo1-MID, sequence (A1Z9J5 538-665): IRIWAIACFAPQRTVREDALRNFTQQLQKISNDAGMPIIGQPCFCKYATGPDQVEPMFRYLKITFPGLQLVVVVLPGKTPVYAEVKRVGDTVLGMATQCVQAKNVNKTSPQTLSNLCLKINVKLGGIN

CeAlg1-MID, sequence (G5EGR6 540-686 limits assumed): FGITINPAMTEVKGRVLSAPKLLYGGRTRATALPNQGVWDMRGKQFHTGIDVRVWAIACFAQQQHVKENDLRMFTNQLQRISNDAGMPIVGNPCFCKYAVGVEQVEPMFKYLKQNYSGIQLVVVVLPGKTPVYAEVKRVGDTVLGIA

## Nc1nc2c(ncn2[C@@H]2O[C@H](COP(=O)(O)O)[C@@H](O)[C@H]2O)c(=O)[nH]1 [GMP]
DmAgo2ΔQ [1]
  filter binding, competition with 32P-bantam miRNA: allosteric behavior was not observed for DmAgo2ΔQ, though GMP could compete at high concentrations

## Nc1nc2c(ncn2[C@@H]2O[C@H](COP(=O)(O)OP(=O)(O)OP(=O)(O)O)[C@@H](O)[C@H]2O)c(=O)[nH]1 [GTP]
PurR-C [2]
  Sepharose resin pull-down, competition with free nucleotide: PurR binding to each resin was easily competed by both GTP and m^7GpppG
DmAgo2-MID [3]
  m7GTP-Sepharose pull-down, competition with free nucleotide: DmAgo2-MID binding was also readily competed by GTP
DmAgo2ΔQ [4]
  resin pull-down, GTP-Sepharose: DmAgo2ΔQ binds poorly to m^7GTP, and better to GTP- and GMP-Sepharose

## C[n+]1cn([C@@H]2O[C@H](COP(=O)(O)OP(=O)(O)OP(=O)(O)O)[C@@H](O)[C@H]2O)c2nc(N)[nH]c(=O)c21 [m^7GTP]
CeRde1 MID domain
  resin pull-down, m7GTP-Sepharose: All of the MID domains [...] were able to bind to both resins
PurR-C [5]
  resin pull-down, m7GTP-Sepharose: as well as the ligand-binding domain of PurR, were able to bind to both resins
CeAlg1-MID
  resin pull-down, m7GTP-Sepharose: miRNA-related Argonautes (DmAgo1, CeAlg1) consistently bound more effectively to m^7GTP-Sepharose
DmeIF4E
  resin pull-down, m7GTP-Sepharose: the binding of DmeIF4E to m^7GTP-Sepharose was highly efficient
DmAgo2-MID [6]
  resin pull-down, m7GTP-Sepharose: All of the MID domains [...] were able to bind to both resins
DmAgo1-MID
  resin pull-down, m7GTP-Sepharose: miRNA-related Argonautes (DmAgo1, CeAlg1) consistently bound more effectively to m^7GTP-Sepharose

## C[n+]1cn([C@@H]2O[C@H](COP(=O)(O)OP(=O)(O)OP(=O)(O)OC[C@H]3O[C@@H](n4cnc5c(=O)[nH]c(N)nc54)[C@H](O)[C@@H]3O)[C@@H](O)[C@H]2O)c2nc(N)[nH]c(=O)c21 [m^7GpppG]
PurR-C [2]
  Sepharose resin pull-down, competition with free nucleotide: PurR binding to each resin was easily competed by both GTP and m^7GpppG
